Key:
[1] = system: GPX4-KO/FSP1-OE HT1080 cells; assay: Viability of FSP1-dependent GPX4-KO cells with serial dilutions of CPBA, no FINs; assay type: cell-based, human; details: serial dilutions of CPBA, no FINs
Procedure: (§1) The following HT1080 fibrosarcoma cell lines were generated using CRISPR/Cas9 technology, as previously described (Doll et al., 2019): HT1080 GPX4-knockout (KO) cells (maintained in the presence of 100 μM α-tocopherol); HT1080 GPX4 knockout cells overexpressing FSP1 (GPX4-KO/FSP1-OE); GPX4-KO cells overexpressing FSP1 and re-expressing GPX4 (GPX4-KO/FSP1-OE/GPX4-OE); HT1080 FSP1-WT or FSP1-KO cells; and HT1080 FSP1-KO cells reconstituted with either FSP1-WT or FSP1-G2A. LOX-IMVI (BRAF V600E heterozygous human melanoma cells) expressing either the Venus mock vector or FSP1-Venus (Doll et al., 2019) were grown in RPMI-1640 supplemented with 10% FCS, 2 mM L-glutamine and Pen/Strep.
Next, we tested the effect of CPBA on ferroptotic cell death in GPX4-deficient HT1080 cells whose survival depends on the expression of FSP1 in order to suppress ferroptosis in the absence of GPX4. GPX4 knockout cells overexpressing FSP1 (GPX4-KO/FSP1-OE), or GPX4-KO cells overexpressing FSP1 and re-expressing GPX4 (GPX4-KO/FSP1-OE/GPX4-OE) were incubated with serial dilutions of CPBA. Note that no ferroptosis inducers (FINs) were added. Protein expression was confirmed by Western Blot as described above (see FIG. 11).

HT1080 cells = assay: Lipid peroxidation, BODIPY 581/591-C11 probe, flow cytometry; assay type: cell-based, human; details: 100 μM CPBA; 16 h; subeffective RSL3, FIN56 or BSO
Procedure: Approximately 10,000 HT1080 cells were seeded per well of a 48-well dish. The next day, cells were treated for 16 h with DMSO (0.1%, solvent control), CPBA (100 μM), or liproxstatin-1 (100 nM) in the absence or presence of subeffective concentrations of RSL3 (50 nM), FIN56 (50 nM), or BSO (1 μM). Cells were incubated with the BODIPY 581/591-C11 probe (1 μM) for 30 min at 37° C. in a tissue culture incubator, harvested by trypsinization, and resuspended in 500 μL phosphate-buffered saline supplemented with 0.5 mg/mL soybean trypsin inhibitor (Sigma Aldrich). Cells were analyzed using the 488-nm laser of a flow cytometer (FACSCalibur, BD Biosciences) for excitation. […] At least 5,000 cells were analyzed per sample. […]
Effects of CPBA on cellular lipid peroxidation were investigated using a BODIPY 581/591-C11 probe as described above. […] Oxidation of the polyunsaturated butadienyl portion of the dye results in a shift of the fluorescence emission peak from about 595 nm (nonoxidized form) to about 520 nm (oxidized form) (see FIG. 8).
HT1080 cells were incubated for 16 h with DMSO (0.1%, solvent control), CPBA (100 μM), or liproxstatin-1 (lip-1, 100 nM) in the absence or presence of subeffective concentrations of RSL3 (50 nM), FIN56 (50 nM), or BSO (1 μM). Fluorescence intensity was quantified by flow cytometry using a 530 nm band-pass filter as described above and quantified. […]

[2] = system: HT1080, Du145 or PC3 cells; assay: Cell viability with CPBA alone, no ferroptosis inducers; assay type: cell-based; details: 16 h
Procedure: (§2) Cells were seeded onto 96-well plates (5,000 cells per well), and treated with serial dilutions of ferroptosis-inducing compounds (erastin, BSO, RSL3, FIN56) or cytotoxic drugs (staurosporine, nocodazole, tunicamycin, paclitaxel, etoposide, menadione, rotenone, FCCP, carboplatin) in the absence or presence of CPBA or iFSP1 (100 μM or 10 μM, respectively; unless stated otherwise) or the DMSO solvent control. Ferroptotic cell death was evaluated by incubating in the absence or presence of liproxstatin-1 (100 nM), ferrostatin-1 (200 nM), or deferoxamine (100 μM). Cell viability was assessed after 16 h using AquaBluer as an indicator of viable cells according to the manufacturer's recommendations (MultiTarget Pharmaceuticals, LLC). Fluorescence (excitation, 540 nm; emission, 590 nm) was analyzed on a Clariostar microplater reader.
To study the effect of increasing CPBA concentrations in the absence of ferroptosis inducers on the viability of HT1080, Du145 or PC3 cells. Cells were incubated with the indicated concentrations of CPBA alone or in the presence of ferroptosis inhibitors deferoxamine (DFO, an iron-chelator and ferroptosis inhibitor); ferrostatin (fer, a ferroptosis inhibitor); liproxstatin-1 (lip-1, a ferroptosis inhibitor); or zVAD-FMK (a pan-caspase and apoptosis inhibitor), and cell viability was analyzed after 16 h.

[3] = system: mouse embryonic fibroblasts (MEFs); assay: FIN-induced ferroptosis in Pgp-wildtype or heterozygous Pgp-inactivated MEFs; assay type: cell-based
Procedure: as §2
The above experiment was repeated in mouse embryonic fibroblasts (MEFs) generated from Pgp-wildtype (Pgp^fl/fl) or heterozygous Pgp-inactivated mouse embryos (Pgp^fl/D34N).

[4] = system: HT1080 GPX4-knockout (KO) cells; assay: Viability of GPX4-knockout cells after α-tocopherol wash-out; assay type: cell-based, human; details: 100 μM CPBA; 48-120 h after α-tocopherol wash-out
Procedure: as §1
In order to study the effect of CPBA-induced sensitization to ferroptosis in the absence of the ferroptosis suppressor GPX4, we generated HT1080 GPX4-knockout (KO) cells using CRISPR/Cas9 technology as described above. Lack of GPX4 expression in GPX4-KO cell lines was confirmed by Western Blot as described above (see FIG. 11). […] Cell viability was assessed at 48 h, 72 h, 96 h and 120 h using AquaBluer.

With `O=C(Nc1ccccc1C(=O)O)c1ccc(Oc2ccc(C(=O)Nc3ccccc3C(=O)O)cc2)cc1` [CPBA, 2-[[4-[4-[(2-carboxyphenyl)carbamoyl]phenoxy]benzoyl]amino]-benzoic acid] the “cell death of GPX4-KO, FSP1-dependent cells” value [1] was “die in a CPBA concentration-dependent manner”, the “amount of lipid peroxidation” value (HT1080 cells) was “the amount of lipid peroxidation in the cells is increased” and the “cell death with the compound alone” value ([2]; 400 μM CPBA) was “Non-ferroptotic, non-apoptotic cell death is observed”. The “concentrations at which the compound alone is not cytotoxic” value ([2]; no ferroptosis inducers) was “up to 200 μM”, the “sensitization to FIN-induced ferroptosis in Pgp^fl/fl and Pgp^fl/D34N cells” value [3] was “able to sensitize both Pgp^fl/fl and Pgp^fl/D34N cells to FIN-induced ferroptosis” and the “ferroptosis in the absence of GPX4” value [4] was “accelerates ferroptosis in the absence of GPX4”.
